Experimental data reported in patent US6583154B1, “Compounds and methods which modulate feeding behavior and related diseases” (Amgen Inc., priority 1998, dated 2003).
Structures can show the parent of a compound that is named as a salt.

How the values were obtained:
[1] = system: Male BALB-C mice; assay: IP administration of compounds in fasted male BALB-C mice, 2 hr food intake; assay type: in vivo; details: Mus musculus; male BALB-C mice fasted 18-20 hr; 30 mg/kg (ip) in 2% tween; food given after 30 min, weighed 2 hr later; vs vehicle; read-out: inhibition of feeding (2 hr food intake)
Excerpt: Protocol For IP Administration Of Compounds In Male BALB-C Mice.
Male BALB-C mice (20-25 g)were obtained from Charles Rivers (Wilmington, Mass.) and were given at least a one week acclimation period to Amgen's animal care facilities. Animals were housed 10/cage and were provided ad libitum food and water. For testing, mice were fasted for 18-20 hr (overnight) prior to the start of the experiment. On the day of the experiment, mice were removed from group housing and placed into individual cages (without food). Test compounds or vehicle was then administered via the intraperitoneal (i.p.) route of administration. Test compounds were suspended in a 2% tween solution; the 2% tween solution was used as the vehicle treatment (control group). Group sizes for each treatment were 6-8 animals. After 30 min, premeasured food was placed into the cages. Two hours later, the food was weighed again. The difference between 2 hr weight and the premeasured weight was taken as 2 hr food intake.

[2] = system: Long-Evans male rats; assay: IP administration of compounds in fasted Long-Evans male rats, 2 hr food intake; assay type: in vivo; details: Rattus norvegicus; male Long Evans rats fasted 18-20 hr; 30 mg/kg (ip) in 2% tween; food given after 30 min, weighed 2 hr later; vs vehicle; read-out: inhibition of feeding (2 hr food intake)
Experimental: Protocol for IP Administration of Compounds in Fasted Long-Evans Male Rats
Male Long Evans rats (85-100 g)were obtained from Harlan (Indianapolis, Ind.) and were given at least a one week acclimation period to Ambients animal care facilities. Animals were individually housed and were provided ad libitum food and water. For testing, rats were fasted for 18-20 hr (overnight) prior to the start of the experiment. On the test day, test compounds or vehicle was administered via the intraperitoneal (i.p.) route of administration. Test compounds were suspended in a 2% tween solution; the 2% tween solution was used as the vehicle treatment (control group). Group sizes for each treatment were 6-8 animals. After 30 min, premeasured food was placed into the cages. Two hours later, the food was weighed again. The difference between 2 hr weight and the premeasured weight was taken as 2 hr food intake.

SMILES	inhibition in vivo at 30 mg/kg [1]	inhibition in vivo at 30 mg/kg [2]	melting point
Cc1nc(N2CCCC2)c2[nH]c(-c3ccccc3)cc2n1 [Example 9, 2-Methyl-6-phenyl-4-pyrrolidinylpyrrolo[3,2-d]pyrimidine]	≥ 10%		
c1ccc(-c2cc3ncnc(N4CCCCC4)c3[nH]2)cc1 [Example 30, 6-Phenyl-4-piperidylpyrrolo[3,2-d]pyrimidine Hydrochloride]	≥ 10%		
Cc1nc(N2CCCCC2)c2sc(-c3ccccc3)cc2n1 [Example 32, 2-Methyl-6-phenyl-4-piperidylthiopheno[3,2-d]pyrimidine Hydrochloride]	≥ 10%	≥ 10%	
Cc1nc(N2CCCCC2)c2sc(-c3ccc(Cl)cc3)cc2n1 [Example 33, 6-(4-Chlorophenyl)-2-methyl-4-piperidylthiopheno[3,2-d]pyrimidine Hydrochloride]	≥ 10%	≥ 10%	
Cc1nc(N2CC=CC2)c2[nH]c(-c3ccccc3)cc2n1 [Example 61, 2-Methyl-6-phenyl-4-(pyrrolinyl)pyrrolo[3,2-d]pyrimidine Hydrochloride Monohydrate]	≥ 10%	≥ 10%	
Cc1nc(N2CCCCC2C)c2[nH]c(-c3ccccc3)cc2n1 (stereo not shown) [Example 63, 2-Methyl-6-phenyl-4-(2-methylpiperidinyl)pyrrolo(3,2-d)pyrimidine Hydrochloride Monohydrate]	≥ 10%	≥ 10%	
CCC1CCCCN1c1nc(C)nc2cc(-c3ccccc3)[nH]c12 (stereo not shown) [Example 64, 2-Methyl-6-phenyl-4-(2-ethylpiperidinyl)pyrrolo[3,2-d]pyrimidine Hydrochloride Hydrate]	≥ 10%		
Cc1nc(N2CC=CCC2)c2[nH]c(-c3ccccc3)cc2n1 [Example 65, 2-Methyl-6-phenyl-4-(1,2,3,6-tetrahydropyridinyl)pyrrolo[3,2-d]pyrimidine Hydrochloride]	≥ 10%	≥ 10%	
Nc1nc(N2CCCCC2)c2[nH]c(-c3ccccc3)cc2n1 [Example 66e, 6-Phenyl-4-piperidylpyrrolo[3,2-d]pyrimidine-2-yl Amine Hydrochloride Hydrate]	≥ 10%	≥ 10%	
CCc1nc(N2CCCCC2)c2[nH]c(-c3ccccc3)cc2n1 [Example 68c, 2-Ethyl-6-phenyl-4-piperidylpyrrolo[3,2-d]pyrimidine Hydrochloride Monohydrate]	≥ 10%	≥ 10%	
COc1ccc(-c2cc3nc(C)nc(N4CCCCC4)c3[nH]2)cc1 [Example 71e, 4-Methoxy-1-(2-methyl-4-piperidylpyrrolo[4,5-d]pyrimidin-6-yl)benzene Hydrochloride Monohydrate]	≥ 10%	≥ 10%	
Cc1nc(N2CCCCC2)c2[nH]c(-c3ccc(O)cc3)cc2n1 [Example 72, 2-methyl-4-piperidyl-6-(4-hydroxyphenyl)pyrrolo[3,2-d]pyrimidine]	≥ 10%	≥ 10%	
CCOC(=O)c1[nH]c(-c2ccc(F)cc2)cc1N [Example 73a, ethyl 3-amino-5-(4-fluorophenyl)pyrrole-2-carboxylate]	≥ 10%		
Cc1nc(N2CCCCC2)c2[nH]c(-c3ccccn3)cc2n1 [Example 77, 2-Methyl-4-piperidyl-6-(2-pyridyl)pyrrolo[3,2-d]pyrimidine Hydrochloride Hydrate]	≥ 10%		
Cc1nc(N2CCCCC2)c2[nH]c(C3CCCCC3)cc2n1 [Example 80d, 6-Cyclohexyl-2-methyl-4-piperidylpyrrolo[3,2-d]pyrimidine Hydrochloride Hydrate]	≥ 10%	≥ 10%	
Cc1nc(N2CCCCC2)c2[nH]c(C34C[C@H]5C[C@@H](C3)C[C@@H](C4)C5)cc2n1 [Example 81d, 6-Adamantanyl-2-methyl-4-piperidylpyrrolo[3,2-d]pyrimidine Hydrochloride Monohydrate]	≥ 10%		
Cc1nc(N2CCCCC2)c2[nH]c(-c3cc4ccccc4o3)cc2n1 [Example 85, 2-(2-Methyl-4-piperidylpyrrolo[4,5-d]pyrimidin-6-yl)benzo[b]furan Hydrochloride Monohydrate]	≥ 10%	≥ 10%	

SMILES	inhibition in vivo at 30 mg/kg [1]	inhibition in vivo at 30 mg/kg [2]	melting point
Cc1nc(N2CCCCC2)c2[nH]c(-c3ccc(Cl)cc3)cc2n1.Cl [Example 92d, 6-(4-Chlorophenyl)-2-methyl-4-piperidylpyrrolo[3,2-d]pyrimidine Hydrochloride]	≥ 10%		253.8 to 255.2 °C (dec.)
CCCNc1nc(N2CCCCC2)c2[nH]c(-c3ccccc3)cc2n1 [Example 93, (6-Phenyl-4-piperidylpyrrolo[3,2-d]pyrimidine-2-yl)propylamine Hydrochloride]	≥ 10%		
Cc1nc(N2CCCCC2)c2oc(-c3ccc(Cl)cc3)cc2n1 [Example 95c, 6-(4-Chlorophenyl)-2-methyl-4-piperidinylfurano-[3,2-d]-pyrimidine Hydrochloride Hydrate]	≥ 10%	≥ 10%	
CC1=C(c2cc3nc(C)nc(N4CCCCC4)c3[nH]2)CCC1.Cl [Example 98, 2-Methyl-6-(2-methylcyclopent-1-enyl)-4-piperidylpyrrolo[3,2-d]pyrimidine Hydrochloride]	≥ 10%		224.5 to 226 °C
Cc1nc(N2CCCCC2)c2[nH]c(-c3cccc(F)c3)cc2n1 [Example 103, 6-(3-Fluorophenyl)-2-methyl-4-piperidylpyrrolo[3,2-d]pyrimidine Hydrochloride Monohydrate]	≥ 10%		
Cc1nc(N2CCCCC2)c2[nH]c(-c3cccc(C(F)(F)F)c3)cc2n1 [Example 107, 2-Methyl-4-piperidyl-6-[3-(trifluoromethyl)phenyl]pyrrolo[3,2-d]pyrimidine Hydrochloride Monohydrate]	≥ 10%		
Cc1nc(N2CCCCC2)c2[nH]c(-c3ccc4c(c3)OCO4)cc2n1 [Example 114, 5-[2-Methyl-4-piperidylpyrrolo[4,5-d]pyrimidin-6-yl]-2H-benzo[d]1,3-dioxolane Hydrochloride Monohydrate]	≥ 10%		
Cc1nc(N2CCCCC2)c2[nH]c(-c3ccc4c(c3)OCCO4)cc2n1 [Example 125, 6-(2-Methyl-4-piperidylpyrrolo[4,5-d]pyrimidin-6-yl)-2H,3H-benzo[e]1,4-dioxane Hydrochloride Monohydrate]	≥ 10%		
Cc1nc(N2CCCCC2)c2[nH]c(-c3ccc4c(c3)CCC4)cc2n1 [Example 130, 6-Indan-5-yl-2-methyl-4-piperidylpyrrolo[3,2-d]pyrimidine Hydrochloride Monohydrate]	≥ 10%		
Cc1nc(N2CCCCC2)c2[nH]c(-c3ccc4c(c3)CCO4)cc2n1 [Example 131, 5-[2-Methyl-4-piperidylpyrrolo[4,5-d]pyrimidin-6-yl]-2,3-dihydrobenzo[b]furan Hydrochloride Hydrate]	≥ 10%		
COc1cc(-c2cc3nc(C)nc(N4CCCCC4)c3[nH]2)cc(OC)c1OC.Cl [Example 143, 1,2,3-Trimethoxy-5-[2-methyl-4-piperidylpyrrolo[4,5-d]pyrimidin-6-yl]benzene Hydrochloride]		≥ 10%	275 to 277 °C
Cc1nc(N2CC=CC2)c2[nH]c(-c3ccc(F)cc3)cc2n1 [Example 199, 6-(4-Fluorophenyl)-2-methyl-4-(3-pyrrolinyl)pyrrolo[3,2-d]pyrimidine Hydrochloride Hydrate]	≥ 10%		
CN(C)c1nc(N2CCCCC2)c2[nH]c(-c3ccccc3)cc2n1 [Example 203, Hydrochloride Hydrate]		≥ 10%	
Fc1ccc(-c2cc3nc(C4CC4)nc(N4CCCCC4)c3[nH]2)cc1 [Example 209c, 2-Cyclopropyl-6-(4-fluorophenyl)-4-piperidylpyrrolo[3,2-d]pyrimidine Hydrochloride Hydrate]		≥ 10%	
Cc1nc(N2CCc3ccccc32)c2[nH]c(-c3ccccc3)cc2n1 [Example 215, 4-Indolinyl-2-methyl-6-phenylpyrrolo[3,2-d]pyrimidine Hydrochloride Hydrate]	≥ 10%		
Cc1nc(N2CC=CC2)c2oc(-c3ccccc3)cc2n1 [Example 216c, 2-Methyl-6-phenyl-4-(3-pyrrolinyl)furano[3,2-d]pyrimidine Hydrochloride Hydrate]		≥ 10%	
Cc1nc(-n2cccn2)c2[nH]c(-c3ccccc3)cc2n1 [Example 218, 2-Methyl-6-phenyl-4-pyrazolypyrrolo[3,2-d]pyrimidine Hydrochloride Hydrate]	≥ 10%		
